Experimental data published in US6737439B2, “Aromatase inhibitors from Broussonetia papyrifera” (The Board of Trustees of the University of Illinois, priority 2001, dated 2004).
Values joined by “and” are separate entries in the source; they are usually repeats but may differ in a detail not shown here. Identical values can stand only once. “Also recorded” adds a separate entry of the source. Like-named read-outs stand apart in the source and are kept apart here.

Experiments:
aromatase = molecular target: T1, aromatase (Homo sapiens, UniProt P11511); assay: Assay for inhibition of aromatase activity (human placental microsomes, [1,2-3H]androstenedione); assay type: biochemical; conditions: for aromatase inhibition, result in words: in vitro aromatase assay; for fold greater aromatase inhibition potency than aminoglutethimide: versus positive control aminoglutethimide
T1 construct: Reaction mixtures were prepared in glass tubes containing 4 μL of placental microsomes (5 mg/mL); from tissue; host or cells: human term placenta (microsomal fraction)
T1 sequence (P11511 1-503): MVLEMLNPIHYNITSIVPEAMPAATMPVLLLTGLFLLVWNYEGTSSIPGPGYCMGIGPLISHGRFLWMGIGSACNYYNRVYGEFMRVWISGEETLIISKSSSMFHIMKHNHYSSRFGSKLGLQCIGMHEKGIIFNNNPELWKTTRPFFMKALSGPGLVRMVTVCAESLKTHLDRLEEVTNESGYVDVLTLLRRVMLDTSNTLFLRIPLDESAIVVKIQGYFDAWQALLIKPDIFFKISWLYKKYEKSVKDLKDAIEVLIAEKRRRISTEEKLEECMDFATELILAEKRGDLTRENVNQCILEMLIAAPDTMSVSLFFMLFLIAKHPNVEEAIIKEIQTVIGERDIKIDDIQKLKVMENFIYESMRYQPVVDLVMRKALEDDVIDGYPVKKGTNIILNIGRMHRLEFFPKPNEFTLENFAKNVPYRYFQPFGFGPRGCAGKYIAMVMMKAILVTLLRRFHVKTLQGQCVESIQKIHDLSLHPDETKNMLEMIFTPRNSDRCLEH
Protocol: Assay for Inhibition of Aromatase Activity. Microsomes were prepared from freshly delivered human term placentas using 0.05 M potassium phosphate buffer, pH 7.4, and stored frozen in plastic tubes at −70° C. […] After a 4 min incubation at 37° C., the reaction was terminated by adding 3 mL of chloroform. The tubes were centrifuged at 2,000×g for 10 min and then 300 μL of the aqueous phases were transferred to tubes containing 300 μL of charcoal/dextrin solution (5%). Following another 10 min centrifugation at 2,000×g, supernatant fractions (500 μL) were used for the determination of radioactivity. Inhibition of aromatase activity was calculated using the following equation: [formula]
Samples were tested in duplicate and the mean values were used to prepare dose-response curves. Results were typically expressed as IC50 values.

[1] = system: tumors in Sprague-Dawley rats; conditions: 400 mg/kg diet; cited from earlier work
[2] = system: alveolar lesions in a mouse mammary organ culture model; assay: Mouse mammary organ culture model, formation of alveolar lesions; assay type: cell-based; conditions: tested at 100 ng/ml
[3] = human placental microsomes, read-out: IC50 (μM), aromatase inhibitory activity
[4] = read-out: IC50, inactive in the aromatase inhibition assay at the dose levels used

Compound	aromatase inhibition, result in words (aromatase)	IC50 (aromatase; [3])	other results
O=C1c2c(O)cc(O)cc2O[C@H](c2ccc(O)cc2)[C@H]1O [(2R,3R)-katuranin, (2R,3R)-Katuranin]	did not show potent aromatase inhibition	–	–
CC(C)=CCc1cc([C@H]2Oc3c(CC=C(C)C)c(O)cc(O)c3C(=O)[C@@H]2O)ccc1O [(2R,3R)-lespedezaflavanone C, (2R,3R)-Lespedezaflavanone C]	did not show potent aromatase inhibition	–	–
CC(C)=CCC/C(C)=C/Cc1c(-c2ccc(O)cc2O)oc2cc(O)cc(O)c2c1=O [Compound 1, 5,7,2′,4′-Tetrahydroxy-3-geranylflavone]	active	24 µM	melting point: 94 to 95 °C
CC(C)=CCc1cc([C@@H]2CCc3ccc(O)cc3O2)ccc1O [Compound 4, (2S)-7,4′-Dihydroxy-3′-prenylflavan]	did not show potent aromatase inhibition; also recorded: inactive	–	–
Broussonin F	did not show potent aromatase inhibition	–	–
COc1cc(O)ccc1CCCc1ccc(O)c(CC=C(C)C)c1 [Compound 7, 1-(4-Hydroxy-2-methoxyphenyl)-3-(4-hydroxy-3-prenylphenyl)propane]	inactive	–	melting point: 85 to 86 °C
O=C1c2c(O)cc(O)cc2O[C@H](c2ccc(O)cc2O)[C@H]1O [(2R,3R)-5,7,2′,4′-tetrahydroxyflavanonol, (2R,3R)-5,7,2′,4′-Tetrahydroxyflavanonol]	did not show potent aromatase inhibition	–	–
Oc1ccc([C@@H]2CCc3ccc(O)cc3O2)cc1 [(2S)-7,4′-dihydroxyflavan, (2S)-7,4′-Dihydroxyflavan]	did not show potent aromatase inhibition	–	–
CC(C)=CCC/C(C)=C/Cc1c(O)cc2oc(-c3ccc(O)c(O)c3)c(O)c(=O)c2c1O [Compound 2, 5,7,3′,4′-Tetrahydroxy-6-geranylflavonol]	not active; also recorded: inactive	–	–
COc1ccc(CCCc2ccc(O)cc2)c(O)c1 [Compound 18, Broussonin A]	did not show potent aromatase inhibition	30 µM	–
Aminoglutethimide	–	–	MNU-induced tumor incidence [1]: effectively reduces
O=c1ccc2c(O)cc(O)cc2o1 [5,7-dihydrocoumarin, 5,7-Dihydroxycoumarin]	–	–	IC50 (aromatase; [4]): > 225 µM
Oc1ccc(CCCc2ccc(O)cc2O)cc1 [Compound 5, 1-(2,4-Dihydroxyphenyl)-3-(4-hydroxyphenyl)propane]	inactive	–	melting point: 92 to 93 °C
CC(C)=CCc1c(O)ccc(CCCc2ccc(O)cc2)c1O [Compound 6, 1-(2,4-Dihydroxy-3-prenylphenyl)-3-(4-hydroxyphenyl)propane]	inactive	–	melting point: 115 to 116 °C
CC(C)=CCc1c(O)cc(O)cc1-c1cc2ccc(O)cc2o1 [Compound 10, Demethylmoracin I]	did not show potent aromatase inhibition; also recorded: active	31.1 µM	–
COc1c(-c2ccc(O)c(O)c2)oc2cc(O)c(C/C=C(\C)CCC=C(C)C)c(O)c2c1=O [Compound 3, 5,7,3′,4′-Tetrahydroxy-3-methoxy-6-geranylflavone]	not active; also recorded: inactive	–	melting point: 98 to 99 °C
COc1cc(/C=C/C(=O)OC/C(C)=C/Cc2c(O)ccc(C(=O)/C=C/c3ccc(O)cc3O)c2O)ccc1O [Compound 8, 3′-(γ-hydroxymethyl-(E)-γ-methylallyl)-2,4,2′,4′-tetrahydroxychalcone 11′-O-ferulate]	active	7.1 µM	–

Now from value to compound, other results behind:

aromatase inhibition, result in words (aromatase)	IC50 (aromatase; [3])	Compound	other results
did not show potent aromatase inhibition	31.1 µM	CC(C)=CCc1cc2cc(-c3cc(O)cc(O)c3)oc2cc1O [Compound 20, Moracin N]	–
did not show potent aromatase inhibition	–	COc1ccc(CCCc2ccc(OC)c(O)c2)c(O)c1 [broussonin E, Broussonin E]	–
–	4.6 µM	CC(C)=CCc1c(O)ccc(C(=O)/C=C/c2ccc(O)cc2O)c1O [Compound 19, 2,4,2′,4′-Tetrahydroxy-3′-prenylchalcone]	–
did not show potent aromatase inhibition	–	COc1cc(O)cc(-c2cc3ccc(O)cc3o2)c1CC=C(C)C [moracin I, Moracin I]	–
did not show potent aromatase inhibition	–	COc1ccc2c(c1CC=C(C)C)O[C@H](c1ccc(O)cc1O)CC2 [Compound 22, (2S)-2′,4′-Dihydroxy-7-methoxy-8-prenylflavan]	IC50 (aromatase; [4]): > 118 µM; melting point: 95 to 96 °C
active	0.5 µM and 0.52 µM	C/C(=C\Cc1c(O)ccc(C(=O)/C=C/c2ccc(O)cc2O)c1O)COC(=O)/C=C/c1ccc(O)cc1 [Compound 9, 3′-[γ-Hydroxymethyl-(E)-γ-methylallyl]-2,4,2′,4′-tetrahydroxychalcone 11′-O-coumarate]	fold greater aromatase inhibition potency than aminoglutethimide (aromatase): approximately ten
not active	–	CC(C)=CCc1c(O)cc2oc(-c3ccc(O)c(O)c3)c(O)c(=O)c2c1O [gancaonin P, Gancaonin P]	–
–	9.7 µM	CC(C)=CCc1cc(-c2oc3c(CC=C(C)C)c(O)cc(O)c3c(=O)c2O)ccc1O [Compound 16, Broussoflavonol F]	–
did not show potent aromatase inhibition	–	COc1cc(O)ccc1CCCc1ccc(O)cc1 [broussonin B, Broussonin B]	–
–	3.4 µM	(2S)-Euchrenone a7 [Compound 15]	–
did not show potent aromatase inhibition	–	CC1(C)C=Cc2c(O)cc(-c3cc4ccc(O)cc4o3)cc2O1 [moracin D, Moracin D]	–
–	7.5 µM	CC1=C[C@@H]2c3c(O)cc(-c4cc5ccc(O)cc5o4)cc3O[C@]3(c4ccc(O)cc4O)Oc4cc(O)ccc4[C@@H](C1)[C@H]23 [Compound 21, Albanol A]	–
did not show potent aromatase inhibition	–	Oc1cc(O)cc(-c2cc3ccc(O)cc3o2)c1 [moracin M, Moracin M]	–
–	2.2 µM	O=C1C[C@@H](c2ccc(O)cc2O)Oc2cc(O)cc(O)c21 [Compound 14, (2S)-5,7,2′,4′-Tetrahydroxyflavanone]	–
not active	–	CC(C)=CCc1cc2c(cc1O)O[C@H](c1ccc(O)cc1)CC2=O [bavachin, Bavachin]	–
active	~0.1 µM and 0.11 µM	CC(C)(O)C1Cc2c(ccc3c2O[C@H](c2ccc(O)cc2O)CC3=O)O1 (stereo partly drawn) [Compound 11, 2S-2′,4′-Dihydroxy-2″-(1-hydroxy-1-methylethyl)-dihydrofuro[2,3-h]flavanone]	fold greater aromatase inhibition potency than aminoglutethimide (aromatase): approximately 60 fold; inhibition at 0.1 µg/mL [2]: 50%
